Where two headings read alike, the source gives them in different places.
Tests used:
ICR (CD−1) male mice [1] = test: Formalin test (mouse, phase II paw licking); type: in vivo; conditions: 10 mg/kg; for inhibition in vivo at 10 mg/kg: Mus musculus, ip, read-out: % Analgesia (formalin test); for Percentage of analgesia relative to ralfinamide (times higher): formalin test
Procedure: The formalin test was carried out using the method described previously. During the formalin test, Institute of Cancer Research (ICR; CD−1) male mice (weight: 22–25 g) were acclimated to the environment for two days before the experiment with food and water available freely. The mice were housed under a 12 h/12 h light/dark cycle. The temperature and humidity of the room were kept at 25 ± 2 °C and 50–60%, respectively. The mice were divided into a vehicle group, a ralfinamide group, and test compound groups randomly, with eight mice in each group. All compounds were dissolved in saline and administered by intraperitoneal injection (n = 8) or intragastric administration by mouth (n = 8) at 10 mg/kg. The vehicle group was given the same volume of saline.
After administration, the mice were placed into polyvinyl chloride (PVC) observation chambers. Thirty minutes later, the mice were injected subcutaneously with 20 μL of 2.7% formalin solution into the surface of their right hind paw and were returned to their PVC chambers immediately to observe their behavior. The cumulative time each mouse licked its right hind paw during phase II (15–30 min) was recorded as its painful time in phase II. The analgesic effects of the compounds were presented as the mean ± standard deviation. The data were analyzed by SPSS using one-way analysis of variance followed by Dunnett’s test. The analgesic activity of the test compounds was calculated according to the following formula. %Analgesia=Average Time (Vehicle)−Average Time (Drug)/Average Time (Vehicle)× 100%

hNav1.7 = target: T1, hNav1.7 (Homo sapiens, UniProt Q15858); test: Whole-cell patch clamp assay for hNav1.7 inhibition (HEK293 cells stably expressing hNav1.7); type: cell-based; conditions: for inhibition at 10 µM: HEK293, TTX-sensitive Nav1.7 current, mean ± SD; for IC50: Table 4, TTX-sensitive inactivated Nav1.7 current
T1 construct: expressed in transfected cells; host or cells: HEK293
Procedure: The compounds were tested as hNav1.7 peak current inhibitors at room temperature using human embryonic kidney 293 cells stably expressing hNav1.7. The holding voltage was depolarized to 0 mV from −120 mV for 20 ms and restored to −75 mV for 8 s. After that, the membrane potential was recovered to −120 mV for 20 ms and then depolarized to 0 mV for another 20 ms. Finally, the voltage was renewed to −120 mV for 30 ms. The potential was applied every 20 s. The compounds were administered when the voltage of hNav1.7 recorded by the whole-cell patch clamp was stable. Every compound concentration was tested for 5 min, and all compounds were tested at several concentrations and with multiple cells.

hNav1.8 = target: T2, hNav1.8 (Homo sapiens, UniProt Q9Y5Y9); test: Whole-cell patch clamp assay for hNav1.8 inhibition (CHO cells stably expressing hNav1.8); type: cell-based; conditions: Nav1.8 inactivated state Na+ currents
T2 construct: expressed in transfected cells; host or cells: CHO
T2 sequence (Q9Y5Y9 whole entry): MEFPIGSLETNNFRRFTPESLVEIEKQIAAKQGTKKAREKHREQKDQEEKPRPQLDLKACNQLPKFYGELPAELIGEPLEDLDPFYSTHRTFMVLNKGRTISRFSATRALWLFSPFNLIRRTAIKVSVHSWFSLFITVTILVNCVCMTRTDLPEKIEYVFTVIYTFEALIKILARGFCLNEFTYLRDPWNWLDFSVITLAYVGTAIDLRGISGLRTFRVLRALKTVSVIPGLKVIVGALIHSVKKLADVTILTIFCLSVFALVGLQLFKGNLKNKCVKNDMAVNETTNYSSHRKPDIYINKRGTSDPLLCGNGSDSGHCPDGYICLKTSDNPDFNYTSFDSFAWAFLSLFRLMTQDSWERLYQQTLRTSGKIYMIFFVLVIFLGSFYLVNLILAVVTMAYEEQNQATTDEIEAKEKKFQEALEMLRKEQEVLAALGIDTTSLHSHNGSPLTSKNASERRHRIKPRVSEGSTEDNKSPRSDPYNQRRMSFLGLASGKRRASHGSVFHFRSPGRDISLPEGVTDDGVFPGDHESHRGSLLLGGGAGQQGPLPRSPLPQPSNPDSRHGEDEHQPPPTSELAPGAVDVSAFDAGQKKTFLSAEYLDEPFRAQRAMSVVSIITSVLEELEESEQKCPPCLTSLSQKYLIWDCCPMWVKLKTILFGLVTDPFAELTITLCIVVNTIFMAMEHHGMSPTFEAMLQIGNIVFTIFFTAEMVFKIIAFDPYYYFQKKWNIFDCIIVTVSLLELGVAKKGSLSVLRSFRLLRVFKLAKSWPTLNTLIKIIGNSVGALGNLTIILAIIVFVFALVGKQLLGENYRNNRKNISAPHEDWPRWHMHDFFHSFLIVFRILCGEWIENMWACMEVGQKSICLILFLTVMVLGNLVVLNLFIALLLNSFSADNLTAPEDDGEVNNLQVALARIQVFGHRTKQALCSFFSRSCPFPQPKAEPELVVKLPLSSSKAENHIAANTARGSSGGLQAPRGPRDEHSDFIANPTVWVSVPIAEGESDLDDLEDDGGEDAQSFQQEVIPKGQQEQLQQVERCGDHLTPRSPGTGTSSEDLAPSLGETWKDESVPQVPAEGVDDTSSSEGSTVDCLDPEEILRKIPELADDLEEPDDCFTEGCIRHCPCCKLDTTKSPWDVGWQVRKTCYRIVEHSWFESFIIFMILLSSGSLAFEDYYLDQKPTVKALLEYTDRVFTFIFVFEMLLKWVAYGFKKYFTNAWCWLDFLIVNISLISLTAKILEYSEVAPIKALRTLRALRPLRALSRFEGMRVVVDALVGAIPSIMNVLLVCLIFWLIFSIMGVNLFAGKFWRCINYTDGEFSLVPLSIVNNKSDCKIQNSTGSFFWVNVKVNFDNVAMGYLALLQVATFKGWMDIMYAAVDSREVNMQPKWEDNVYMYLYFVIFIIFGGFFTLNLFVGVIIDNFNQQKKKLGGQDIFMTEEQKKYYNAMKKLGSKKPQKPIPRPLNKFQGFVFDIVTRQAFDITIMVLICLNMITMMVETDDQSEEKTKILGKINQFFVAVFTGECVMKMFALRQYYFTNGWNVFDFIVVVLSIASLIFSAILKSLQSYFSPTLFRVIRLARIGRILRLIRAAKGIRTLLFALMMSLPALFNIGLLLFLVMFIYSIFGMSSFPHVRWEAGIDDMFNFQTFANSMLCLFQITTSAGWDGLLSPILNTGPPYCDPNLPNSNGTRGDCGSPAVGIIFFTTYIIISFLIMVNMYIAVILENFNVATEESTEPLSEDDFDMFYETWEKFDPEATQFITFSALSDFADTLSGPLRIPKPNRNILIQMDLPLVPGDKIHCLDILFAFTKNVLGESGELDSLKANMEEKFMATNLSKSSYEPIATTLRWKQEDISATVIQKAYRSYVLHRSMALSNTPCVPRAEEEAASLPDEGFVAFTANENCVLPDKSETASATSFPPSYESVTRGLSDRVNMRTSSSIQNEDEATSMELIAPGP
Procedure: The whole-cell patch clamp assay assessing the hNav1.8 current was carried out at room temperature with Chinese hamster ovary cells stably expressing hNav1.8. The holding voltage of the membrane was transferred to 0 mV from −120 mV for 50 ms and then restored to −50 mV for 8 s. After that, the membrane potential was renewed to −120 mV for 20 ms, which was followed by a depolarization to 0 mV for 50 ms. Finally, the potential was recovered to the holding voltage of −120 mV for 30 ms. This process was performed every 20 s. The compounds were administered when the voltage of hNav1.8 was stable. Every compound concentration was tested for 5 min, and all compounds were tested at several concentrations and with multiple cells.

ICR (CD-1) male mice = test: Acetic acid-induced writhing test; type: in vivo; conditions: 10 mg/kg, i.p.; writhes in 20 min; mean ± SD, n = 6
Procedure: The writhing test was performed according to a previously reported method. The ICR (CD-1) male mice (weight: 22–25 g) were treated as for the formalin test in the same environment. The mice were divided into a vehicle group, a ralfinamide group, and test compound groups randomly, with six mice in each group. All compounds were dissolved in saline and administered by intraperitoneal injection at 10 mg/kg. The vehicle group was given the same volume of saline. After administration, the mice were placed into PVC chambers. Thirty minutes later, the mice were injected with 1% acetic acid solution at 10 mL/kg by intraperitoneal injection and placed into the observation chambers immediately to record the number of writhes each mouse had in 20 min. The results were presented as the mean ± standard deviation. The analytical method was the same as that for the formalin test, and the analgesic activity of each compound was calculated by the following formula. %Analgesia=Average Number (Vehicle)−Average Number (Drug)/Average Number (Vehicle)× 100%

mouse [2] = test: Mouse tail flick assay; type: in vivo; conditions: even at a high dose of 100 mg/kg; data not shown
mouse [3] = test: Mouse hotplate assay; type: in vivo; conditions: even at a high dose of 100 mg/kg; data not shown
hNav1.5 = target: T3, hNav1.5 (Homo sapiens, UniProt Q14524); test: Assay for hNav1.5 inhibition (HEK293 cells stably expressing hNav1.5); type: cell-based; conditions: for inhibition at 10 µM: HEK293, read-out: Inhibitory Effect to Nav1.5; for Inhibitory activity against Nav1.5 (in words): similarly to ralfinamide, low selectivity over the cardiac sodium channel
T3 construct: expressed in transfected cells; host or cells: HEK293
T3 sequence (Q14524 whole entry): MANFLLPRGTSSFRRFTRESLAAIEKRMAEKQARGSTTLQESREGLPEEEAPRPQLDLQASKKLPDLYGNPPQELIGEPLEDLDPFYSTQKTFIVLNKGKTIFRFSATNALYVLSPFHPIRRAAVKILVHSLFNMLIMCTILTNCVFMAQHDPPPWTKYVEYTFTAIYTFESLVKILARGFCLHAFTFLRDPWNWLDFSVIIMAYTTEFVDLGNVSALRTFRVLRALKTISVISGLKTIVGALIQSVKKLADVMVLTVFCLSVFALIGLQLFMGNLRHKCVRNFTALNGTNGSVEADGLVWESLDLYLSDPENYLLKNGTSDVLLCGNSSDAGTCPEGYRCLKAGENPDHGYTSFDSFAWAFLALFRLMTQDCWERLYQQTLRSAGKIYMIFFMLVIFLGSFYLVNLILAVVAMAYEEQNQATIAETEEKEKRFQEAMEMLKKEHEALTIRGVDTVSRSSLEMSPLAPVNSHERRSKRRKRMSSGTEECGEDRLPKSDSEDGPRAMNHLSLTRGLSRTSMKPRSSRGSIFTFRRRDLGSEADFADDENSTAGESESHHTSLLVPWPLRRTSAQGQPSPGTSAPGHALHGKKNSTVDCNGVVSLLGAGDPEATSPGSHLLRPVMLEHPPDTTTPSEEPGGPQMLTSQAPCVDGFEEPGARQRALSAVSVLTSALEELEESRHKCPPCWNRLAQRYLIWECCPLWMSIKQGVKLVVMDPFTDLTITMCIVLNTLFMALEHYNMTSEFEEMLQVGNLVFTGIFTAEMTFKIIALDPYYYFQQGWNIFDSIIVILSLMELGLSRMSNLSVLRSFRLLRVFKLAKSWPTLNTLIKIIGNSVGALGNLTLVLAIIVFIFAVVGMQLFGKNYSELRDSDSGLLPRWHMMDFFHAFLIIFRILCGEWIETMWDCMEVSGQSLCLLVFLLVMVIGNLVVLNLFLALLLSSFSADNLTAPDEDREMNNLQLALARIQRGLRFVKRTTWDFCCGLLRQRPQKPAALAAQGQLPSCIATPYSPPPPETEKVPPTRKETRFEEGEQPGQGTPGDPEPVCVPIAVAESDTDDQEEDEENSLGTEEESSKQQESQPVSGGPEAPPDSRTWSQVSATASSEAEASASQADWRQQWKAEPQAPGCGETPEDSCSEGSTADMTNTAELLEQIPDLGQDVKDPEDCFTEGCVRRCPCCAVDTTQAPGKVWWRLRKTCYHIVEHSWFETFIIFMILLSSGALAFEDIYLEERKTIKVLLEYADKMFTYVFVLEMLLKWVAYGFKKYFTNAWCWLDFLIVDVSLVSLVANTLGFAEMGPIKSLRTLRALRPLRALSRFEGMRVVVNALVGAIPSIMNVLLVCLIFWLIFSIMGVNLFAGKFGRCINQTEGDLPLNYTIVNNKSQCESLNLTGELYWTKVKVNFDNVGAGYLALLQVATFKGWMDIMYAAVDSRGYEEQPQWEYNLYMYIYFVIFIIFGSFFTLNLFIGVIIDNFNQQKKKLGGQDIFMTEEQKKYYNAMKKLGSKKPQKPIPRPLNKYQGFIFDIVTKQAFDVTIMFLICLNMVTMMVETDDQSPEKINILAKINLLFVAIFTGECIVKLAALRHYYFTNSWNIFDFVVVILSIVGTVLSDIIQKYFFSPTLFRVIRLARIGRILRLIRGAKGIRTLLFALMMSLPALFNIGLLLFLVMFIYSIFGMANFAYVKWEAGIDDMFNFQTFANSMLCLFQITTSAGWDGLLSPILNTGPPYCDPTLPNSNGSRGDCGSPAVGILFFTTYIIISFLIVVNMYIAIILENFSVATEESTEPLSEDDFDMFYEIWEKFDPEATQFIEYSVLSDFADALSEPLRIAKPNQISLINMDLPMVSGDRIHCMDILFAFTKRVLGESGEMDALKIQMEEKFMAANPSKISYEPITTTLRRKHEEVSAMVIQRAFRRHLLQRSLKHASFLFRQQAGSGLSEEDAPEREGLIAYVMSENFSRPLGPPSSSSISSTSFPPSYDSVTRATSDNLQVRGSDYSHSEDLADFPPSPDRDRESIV
Procedure: The inhibition of the compounds to hNav1.5 peak current was performed at room temperature using HEK293 cells that could express hNav1.5 stably. The holding voltage of the membrane was transferred to 0 mV from −120 mV for 50 ms and then restored to −50 mV for 8 s. After that, the membrane potential was renewed to −120 mV for 20 ms, followed by a depolarization to 0 mV for 50 ms. At last, the potential was recovered to the holding voltage −120 mV for 30 ms. This progress was performed every 20 s. The compounds were administrated when the voltage of hNav1.5 was stable. Every concentration was tested for 5 min and all compounds were tested at several concentrations and with multiple cells.

ICR (CD−1) male mice [4] = test: Formalin test (mouse, phase II paw licking); type: in vivo; conditions: 20 mg/kg, dose-effect relationship assay
[5] = i.p., phase II (15–30 min), mean ± SD, n = 8
[6] = read-out: Inhibitory Effect against Nav1.7, Activated State (TP−1)
[7] = read-out: Inhibitory Effect against Nav1.7, Inactivated State (TP−2)

inhibition at 10 µM (hNav1.7; [6]) [%]	inhibition at 10 µM (hNav1.7; [7]) [%]	Structure (SMILES)	inhibition in vivo at 10 mg/kg (ICR (CD−1) male mice [1]; [5]) [%]	% Analgesia (acetic acid-induced writhing test) (ICR (CD-1) male mice)	also measured
8.6 ± 1.2	30 ± 2.9	C[C@H](NCc1cccc(COc2ccc3ncccc3c2)c1)C(N)=O [Compound 7c, (S)-2-((3-((Quinolin-6-yloxy)methyl)benzyl)amino)propanamide]	81.5 ± 14.8	–	–
10.9 ± 1.1	31.8 ± 0.3	C[C@H](NCc1ccc(COc2ccc3occc3c2)cc1)C(N)=O [Compound 6d, (S)-2-((4-((Benzofuran-5-yloxy)methyl)benzyl)amino)propanamide]	42.2 ± 16.3	28.9 ± 8.5 %	–
14.7 ± 5.4	29.8 ± 0.6	C[C@H](NCc1ccc(COc2cccc3ncccc23)cc1)C(N)=O [Compound 7b, (S)-2-((4-((Quinolin-5-yloxy)methyl)benzyl)amino)propanamide]	37.2 ± 25.3	–	–
3.7 ± 0.5	13.5 ± 0.4	C[C@H](NCc1ccc(COc2ccc3ncccc3c2)cc1)C(N)=O [Compound 7d, (S)-2-((4-((Quinolin-6-yloxy)methyl)benzyl)amino)propanamide]	20.9 ± 18.7	–	–
-1.8 ± 3.2	31.6 ± 3.4	C[C@H](NCc1ccc(COc2ccc3cccnc3c2)cc1)C(N)=O [Compound 7f, (S)-2-((4-((Quinolin-7-yloxy)methyl)benzyl)amino)propanamide]	15.9 ± 17.6	–	–
9.1 ± 4.3	38.6 ± 4.7	C[C@H](NCc1ccc(COc2cccc3cccnc23)cc1)C(N)=O [Compound 7h, (S)-2-((4-((Quinolin-8-yloxy)methyl)benzyl)amino)propanamide]	57.2 ± 30.1	–	–

More lines, now with the values behind:

Structure (SMILES)	inhibition at 10 µM (hNav1.7; [6]) [%]	inhibition at 10 µM (hNav1.7; [7]) [%]	inhibition in vivo at 10 mg/kg (ICR (CD−1) male mice [1]; [5]) [%]	% Analgesia (acetic acid-induced writhing test) (ICR (CD-1) male mice)	also measured
C[C@H](NCc1ccc(COc2cccc3[nH]cnc23)cc1)C(N)=O [Compound 5b, (S)-2-((4-(((1H-Benzo[d]imidazol-4-yl)oxy)methyl)benzyl)amino)propanamide]	3.7 ± 2	1.4 ± 0.6	27.4 ± 19.2	–	–
C[C@H](NCc1ccc(COc2ccc3ccoc3c2)cc1)C(N)=O [Compound 6f, (S)-2-((4-((Benzofuran-6-yloxy)methyl)benzyl)amino)propanamide]	12.4 ± 2.9	50.4 ± 3.6	67.8 ± 22.7	63.2 ± 13.3 ^☆ @ %	IC50 (hNav1.8): 4.8 ± 0.7 µM; Percentage of analgesia relative to ralfinamide (times higher) (ICR (CD−1) male mice [1]): 1.5–2 times; IC50 (hNav1.7): 8.1 ± 1.1 µM; Analgesic effect in tail flick assay (in words) (mouse [2]): no analgesic effect; Analgesic effect in mouse hotplate assay (in words) (mouse [3]): no analgesic effect; inhibition at 10 µM (hNav1.5): 48 ± 0.1%; Inhibitory activity against Nav1.5 (in words) (hNav1.5): moderate inhibitory activity
C[C@H](NCc1cccc(COc2ccc3cccnc3c2)c1)C(N)=O [Compound 7e, (S)-2-((3-((Quinolin-7-yloxy)methyl)benzyl)amino)propanamide]	3.6 ± 3.3	47.7 ± 2.7	30.6 ± 14.7	–	–
C[C@H](NCc1cccc(COc2ccc3ccoc3c2)c1)C(N)=O [Compound 6e, (S)-2-((3-((Benzofuran-6-yloxy)methyl)benzyl)amino)propanamide]	11.4 ± 1.6	58.5 ± 1.8	71.7 ± 22	45.7 ± 17.2 ^☆ %	IC50 (hNav1.8): 10.1 ± 1.9 µM; Percentage of analgesia relative to ralfinamide (times higher) (ICR (CD−1) male mice [1]): 1.5–2 times; IC50 (hNav1.7): 9.4 ± 2.7 µM; Analgesic effect in tail flick assay (in words) (mouse [2]): no analgesic effect; Analgesic effect in mouse hotplate assay (in words) (mouse [3]): no analgesic effect; inhibition at 10 µM (hNav1.5): 70.1 ± 2.2%; Inhibitory activity against Nav1.5 (in words) (hNav1.5): moderate inhibitory activity
C[C@H](NCc1cccc(COc2ccc3occc3c2)c1)C(N)=O [Compound 6c, (S)-2-((3-((Benzofuran-5-yloxy)methyl)benzyl)amino)propanamide]	12.2 ± 0.7	48.1 ± 4.2	30.2 ± 19.8	11.2 ± 7.6%	–
C[C@H](NCc1cccc(COc2cccc3[nH]cnc23)c1)C(N)=O [Compound 5a, (S)-2-((3-(((1H-Benzo[d]imidazol-4-yl)oxy)methyl)benzyl)amino)propanamide]	5.1 ± 1.2	10.7 ± 0.4	51 ± 21.6	–	–
C[C@H](NCc1ccc(OCc2ccccc2F)cc1)C(N)=O [Ralfinamide, reference compound]	8.1 ± 3.8	57.7 ± 3.4	42.4	44.4 ± 15.5 ^☆ %	IC50 (hNav1.8): 36.3 ± 8.9 µM; % Analgesia (formalin test) (ICR (CD−1) male mice [1]; [5]): 42.4 ± 23.3 %; Analgesic response (formalin test) (ICR (CD−1) male mice [4]): 59.7%; IC50 (hNav1.7): 6.6 ± 1.6 µM; inhibition at 10 µM (hNav1.5): 64.6 ± 3.2%
C[C@H](NCc1cccc(COc2cccc3cccnc23)c1)C(N)=O [Compound 7g, (S)-2-((3-((Quinolin-8-yloxy)methyl)benzyl)amino)propanamide]	14.7 ± 0.2	46 ± 0.1	35.6 ± 26.1	–	–
C[C@H](NCc1ccc(COc2ccc3[nH]cnc3c2)cc1)C(N)=O [Compound 5d, (S)-2-((4-(((1H-Benzo[d]imidazol-5-yl)oxy)methyl)benzyl)amino)propanamide]	0.7 ± 0.8	1.5 ± 0.9	60.8 ± 32.2	–	–
C[C@H](NCc1ccc(COc2cccc3occc23)cc1)C(N)=O [Compound 6b, (S)-2-((4-((Benzofuran-4-yloxy)methyl)benzyl)amino)propanamide]	11.8 ± 0.3	55.5 ± 2.5	48.4 ± 26.4	48.0 ± 5.8 ^☆ %	–
C[C@H](NCc1cccc(COc2cccc3ncccc23)c1)C(N)=O [Compound 7a, (S)-2-((3-((Quinolin-5-yloxy)methyl)benzyl)amino)propanamide]	6.4 ± 4.9	23.8 ± 3.6	48 ± 27.8	–	–
C[C@H](NCc1cccc(COc2ccc3[nH]cnc3c2)c1)C(N)=O [Compound 5c, (S)-2-((3-(((1H-Benzo[d]imidazol-5-yl)oxy)methyl)benzyl)amino)propanamide]	1.7 ± 0.3	2.6 ± 0.8	48.8 ± 15.5	–	–

Source: PMC8003485, “Synthesis and Evaluation of Novel α-Aminoamides Containing Benzoheterocyclic Moiety for the Treatment of Pain” (Molecules, 2021)
